From patent publication US20070037736A1, “Therapeutic composition comprising the KAL protein and use of the KAL protein for the treatment of retinal, renal, neuronal and neural injury” (INSTITUT PASTEUR, priority 1997, published 2007)

Assays:
[1] = test system: olfactory neurons (line 24); test: Adhesion and peptide/serum inhibition assay, colorimetric; format: cell-based, rat; details: for percentage of olfactory neurons (line 24) adherent on substrate: substrate coated to microtiter wells
Description: (§1) Adhesion assays were performed as described in (à compléter) with some modifications. Coating with the various molecules, at the indicated concentrations in 0.5 ml PBS, was performed in plastic 24-well multidishes (Nunclon™) at 37° C. (1 h or overnight).The cells were then washed three times with PBS, coating blocked with 1% heat-inactivated BSA (à compléter) for at least 1 h at 37° C., followed by three PBS washes, before addition of the cells (10^6 cells per ml in serum-free medium containing 0.1% heat-inactivated BSA). In standard experiments, purified KAL was applied at 3 μg/ml. Other substrates were used as control, fibronectin ([…]) and poly-L-lysine (100 μg/ml).
(§2) Cells were incubated for 30 min to 1 h on coated wells. Medium was then aspirated and unbound cells removed by one wash with PBS. The adherent cells were fixed with […] paraformaldehyde (PFA) in PBS and stained with 0.1% crystal violet. Quantification of the attached cells was performed using a colorimetric method (à compléter). Data are expressed as the percentage of adherent cells on each tested substrate with reference to poly-L-lysine. Assays in triplicate were repeated in three independent experiments.
A 32 aminoacid peptide (32R1-FIG. 24) was synthesized (Syntiem laboratory). Control peptides were C17 (NH2CSLVPTKKKRRKTTDGF-COON) (SEQ ID NO:7) derived from the second fibronectin type III repeat of human KAL and C 16V (NHzCGSYANNNRYGRDPPTSV-000H), (SEQ ID NO:8) derived from the EYA1 protein (a completer). The peptides, at various concentrations (10 to 30 μg/ml), were directly adsorbed on polystyrene microtiter wells (Immulon 4, Nunc). Adhesion assays were performed as described above.
In peptide inhibition assays, cells were preincubated with the peptides at different concentrations (10 to 100 μg/ml) for 1 h at 4° C., then plated to KAL-coated wells, and incubated for a further 30 min period of time.

[2] = test system: PC12 cells; test: Adhesion and inhibition assay, colorimetric; format: cell-based, rat; details: data not shown; compared with olfactory neurons
Description: as §1, §2
Cells were incubated for 5 min at room temperature in HBSS containing 5 mM EDTA, washed once with HBSS and preincubated for 1 h at 4° C. in HBSS containing 0.1% BSA in the absence or in the presence of Ca^++ and/or Mg^++ prior plating.
Heparin, heparan sulfate or chondroitin sulfate (up to 1 mg/ml in PBS) was added in KAL-coated-BSA-saturated wells, and allowed to interact for 2 h at 37° C. After three washings with PBS, CHO-K1or PC12 cells were plated, and incubated as usual.
A 32 aminoacid peptide (32R1-FIG. 24) was synthesized (Syntiem laboratory). Control peptides were C17 (NH2CSLVPTKKKRRKTTDGF-COON) (SEQ ID NO:7) derived from the second fibronectin type III repeat of human KAL and C 16V (NHzCGSYANNNRYGRDPPTSV-000H), (SEQ ID NO:8) derived from the EYA1 protein (a completer). The peptides, at various concentrations (10 to 30 μg/ml), were directly adsorbed on polystyrene microtiter wells (Immulon 4, Nunc). […]

[3] = test system: olfactory neurons (line 24); test: Spreading and neurite growth on coated substrates; format: cell-based, rat; details: mean ± SEM
Description: FIG. 28: Mean neurite length on the different substrates after one hour, two hours and eight hours in vitro. Mean value±SEM. More than 100 neurons were analyzed in each experimental condition.
Cells, in serum-free medium containing 0.1% heat inactivated BSA were seeded on KAL- or laminin-coated wells, and maintained for 20 min to 22 h at 37° C. Adherent cells were fixed, stained with toluidine blue, and photographied with an inverted microscope.

[4] = test system: P5 cerebellar granule cells; test: Adhesion assay, colorimetric, relative to poly-L-lysine; format: cell-based, mouse; details: 1 hour
Description: as §1, §2

[5] = test system: CHO-K1 cells; test: Adhesion and inhibition assay, colorimetric; format: cell-based, Chinese Hamster; details: cells treated prior plating
Description: as §1, §2
Heparin, heparan sulfate or chondroitin sulfate (up to 1 mg/ml in PBS) was added in KAL-coated-BSA-saturated wells, and allowed to interact for 2 h at 37° C. […]

[6] = test system: CHO-677 cells; test: Adhesion assay with HS-deficient mutant cells; format: cell-based, Chinese Hamster
Excerpt: The parental CHO cell line and the human KAL-transfected CHO clones (1-1 and 2-3) were cultivated in DMEM medium supplemented with 8% fetal calf serum (PAA, Jacques Boy, France). • Cells from the olfactory neuronal line 13.S.1.24 also named “line 24” (kindly provided by Dr. Astic, Lyon, France) were cultivated in DMEM supplemented with 10% calf serum. Porcine kidney epithelial cells (LLCPK) ATCC NO CRL1392 • Mouse GnRH neurons (GT1, subclone 1) • Wild-type CHO-K1, mutant CHO-K1-677 (Lidholt K. et al., 1992) and CHO-K1-606 (Bame et al., 1994) cell lines were provided to us by Dr. Esko, the mutant CHO-K1-745 (Esko et al., 1987) cell line was obtained from ATCC. The CHO-K1-677 cells display undetectable levels of heparan-sulfate (HS), but synthesize chondroitin sulfate (CS) at a level 3 times higher than wild-type CHO-K1 cells. The CHO-K1-606 cells express HS and CS at levels similar to those observed in wild-type, but HS is 2 to 3 times less sulfated than in wild-type cells. The CHO-K1-745 cells, deficient in xylosyltransferase, synthesize neither HS nor CS (Esko et al., 1987). Wild-type and mutant CHO-K1cells were maintained in Ham F12 medium supplemented with 10% fetal calf serum.
Adhesion assays were performed as described in (à compléter) with some modifications. Coating with the various molecules, at the indicated concentrations in 0.5 ml PBS, was performed in plastic 24-well multidishes (Nunclon™) at 37° C. (1 h or overnight).The cells were then washed three times with PBS, coating blocked with 1% heat-inactivated BSA (à compléter) for at least 1 h at 37° C., followed by three PBS washes, before addition of the cells (10^6 cells per ml in serum-free medium containing 0.1% heat-inactivated BSA). In standard experiments, purified KAL was applied at 3 μg/ml. […]
Cells were incubated for 30 min to 1 h on coated wells. […] Quantification of the attached cells was performed using a colorimetric method (à compléter). Data are expressed as the percentage of adherent cells on each tested substrate with reference to poly-L-lysine. […]

“NHzCGSYANNNRYGRDPPTSV-000H [C16V, reference compound]” was tested, and the “percentage of olfactory neurons (line 24) adherent on substrate” value [1] was “no adhesion”.

With “NHz-RPSRWYQFRVAAVNVHGTRGFTAPSKHFRSSK-000H [32R1]” the “effect of preincubation with peptide on adhesion to fibronectin and laminin substrates” value [1] was “had no effect”, the “concentration of peptide giving complete inhibition of adhesion to KAL substrate” value ([1]; cells preincubated with peptide) was 26 µM and the “percentage of olfactory neurons (line 24) adherent on substrate” value [1] was 80%. For the same substance, the “adhesion of PC12 cells on peptide substrate” value [2] was “same results”, the “mean neurite length per olfactory neuron” value ([3]; eight hours after plating) was 63 (±2) μm and the “mean neurite length per olfactory neuron” value ([3]; one hour on substrate) was 32 (±4) μm.

laminin [reference compound] was tested, and the “percentage of cell adhesion relative to PLL substrate (set as 100%)” value [4] was 50%.

For chondroitinase ABC, the “decrease of adhesion of CHO-K1 cells on KAL after enzyme treatment” value [5] was “about 50%”, the “effect of enzyme treatment of CHO-677 cells on adhesion on fibronectin substrate” value ([6]; data not shown) was “did not affect adhesion” and the “effect of enzyme treatment of CHO-677 cells on adhesion to KAL” value ([6]; increasing concentrations, prior plating) was “virtually complete inhibition”.
